{"source": "patent US11096985B2", "about": "“Antimicrobial peptides, their variants and uses” (priority 2015, dated 2021)", "key": {"[1]": {"system": "clinical strains of Escherichia coli", "experiment": "MIC, clinical strains of E. coli", "type": "cell-based", "design": "unit: μg/ml", "conditions": "microdilution, Muller Hinton broth-cation adjusted, 0.02% BSA, 0.2% acetic acid", "method_in_brief": "(§1)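 Broth microdilution in Mueller Hinton broth, inoculum adjusted to 5.0×10^5 cfu/ml, peptide tested at 0.125 to 128 μg/ml and incubated at 37° C. for 20 to 24 hours. MIC was the lowest concentration with no visible growth. Yeasts were tested in potato dextrose broth.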"}, "[2]": {"system": "clinical strains of Klebsiella pneumoniae", "experiment": "MIC, clinical strains of K. pneumoniae", "type": "cell-based", "design": "unit: μg/ml", "conditions": "microdilution, Muller Hinton broth-cation adjusted, 0.02% BSA, 0.2% acetic acid", "method_in_brief": "as §1"}, "[3]": {"system": "clinical strains of Pseudomonas aeruginosa", "experiment": "MIC, clinical strains of P. aeruginosa", "type": "cell-based", "design": "unit: μg/ml", "conditions": "microdilution, Muller Hinton broth-cation adjusted, 0.02% BSA, 0.2% acetic acid", "method_in_brief": "as §1"}, "[4]": {"system": "clinical strains of Serratia marcescens", "experiment": "MIC, clinical strains of Serratia marcescens", "type": "cell-based", "design": "unit: µg/mL", "conditions": "microdilution, Muller Hinton broth-cation adjusted, 0.02% BSA, 0.2% acetic acid", "method_in_brief": "as §1"}, "[5]": {"system": "clinical strains of Proteus mirabilis", "experiment": "MIC, clinical strains of Proteus mirabilis", "type": "cell-based", "design": "unit: µg/mL", "conditions": "microdilution, Muller Hinton broth-cation adjusted, 0.02% BSA, 0.2% acetic acid", "method_in_brief": "as §1"}, "[6]": {"system": "clinical strains of Enterobacter cloacae", "experiment": "MIC, clinical strains of Enterobacter cloacae", "type": "cell-based", "design": "unit: μg/ml", "conditions": "microdilution, Muller Hinton broth-cation adjusted, 0.02% BSA, 0.2% acetic acid", "method_in_brief": "as §1"}, "[7]": {"system": "clinical strains of Staphylococcus aureus", "experiment": "MIC, clinical strains of S. aureus", "type": "cell-based", "design": "unit: μg/ml", "conditions": "microdilution, Muller Hinton broth-cation adjusted, 0.02% BSA, 0.2% acetic acid", "method_in_brief": "as §1"}, "[8]": {"system": "clinical strains of Streptococcus pneumoniae", "experiment": "MIC, clinical strains of Streptococcus pneumoniae", "type": "cell-based", "design": "unit: µg/mL", "conditions": "microdilution, Muller Hinton broth-cation adjusted, 0.02% BSA, 0.2% acetic acid", "method_in_brief": "as §1"}, "[9]": {"system": "clinical strains of Candida albicans", "experiment": "MIC, clinical yeast strains, Candida albicans", "type": "cell-based", "design": "unit: μg/ml", "method_in_brief": "as §1"}, "[10]": {"system": "clinical strains of C. glabrata", "experiment": "MIC, clinical yeast strains, C. glabrata", "type": "cell-based, Candida glabrata", "design": "unit: μg/ml", "method_in_brief": "as §1"}, "[11]": {"system": "clinical strains of C. parapsilosis", "experiment": "MIC, clinical yeast strains, C. parapsilosis", "type": "cell-based, Candida parapsilosis", "design": "unit: μg/ml", "method_in_brief": "as §1"}, "[12]": {"system": "clinical strains of C. quillermondiae", "experiment": "MIC, clinical yeast strains, C. quillermondiae", "type": "cell-based", "conditions": "C. quillermondiae clinical yeast strain 1", "method_in_brief": "as §1"}}, "note": "Where a SMILES comes first, the peptide text is derived from it. [ ]: non-standard residue; d: D form.", "data": [{"molecule": "CC(C)C[C@@H](NC(=O)[C@H](N)CCCCN)C(=O)N[C@H](CCCCN)C(=O)N[C@H](Cc1c[nH]c2ccccc12)C(=O)N[C@H](Cc1ccccc1)C(=O)N[C@H](Cc1c[nH]c2ccccc12)C(=O)N[C@H](CC(C)C)C(=O)N[C@H](Cc1ccccc1)C(=O)N[C@H](CCCCN)C(=O)N[C@H](CCCCN)C(=O)N[C@H](CCCNC(=N)N)C(=O)O", "note": "[Chain311D] (H-[dK][dL][dK][dW][dF][dW][dL][dF][dK][dK][dR]-OH)", "values": [{"measurement": "Minimum inhibitory concentration", "setting": "[1]; Escherichia coli clinical strain 1", "result": 2}, {"measurement": "Minimum inhibitory concentration", "setting": "[1]; Escherichia coli clinical strain 2", "result": 2}, {"measurement": "Minimum inhibitory concentration", "setting": "[1]; Escherichia coli clinical strain 3", "result": 1}, {"measurement": "Minimum inhibitory concentration", "setting": "[1]; Escherichia coli clinical strain 4", "result": 0.5}, {"measurement": "Minimum inhibitory concentration", "setting": "[1]; Escherichia coli clinical strain 5", "result": 1}, {"measurement": "Minimum inhibitory concentration", "setting": "[2]; Klebsiella pneumoniae clinical strain 1", "result": 8}, {"measurement": "Minimum inhibitory concentration", "setting": "[2]; Klebsiella pneumoniae clinical strain 2", "result": 8}, {"measurement": "Minimum inhibitory concentration", "setting": "[2]; Klebsiella pneumoniae clinical strain 3", "result": 4}, {"measurement": "Minimum inhibitory concentration", "setting": "[2]; Klebsiella pneumoniae clinical strain 4", "result": 8}, {"measurement": "Minimum inhibitory concentration", "setting": "[2]; Klebsiella pneumoniae clinical strain 5", "result": 4}, {"measurement": "Minimum inhibitory concentration", "setting": "[3]; Pseudomonas aeruginosa clinical strain 1", "result": 16}, {"measurement": "Minimum inhibitory concentration", "setting": "[3]; Pseudomonas aeruginosa clinical strain 2", "result": 8}, {"measurement": "Minimum inhibitory concentration", "setting": "[3]; Pseudomonas aeruginosa clinical strain 3", "result": 16}, {"measurement": "Minimum inhibitory concentration", "setting": "[3]; Pseudomonas aeruginosa clinical strain 4", "result": 8}, {"measurement": "Minimum inhibitory concentration", "setting": "[3]; Pseudomonas aeruginosa clinical strain 5", "result": 4}, {"measurement": "Minimum inhibitory concentration", "setting": "[4]; Serratia marcescens clinical strain 1", "result": ">128"}, {"measurement": "Minimum inhibitory concentration", "setting": "[4]; Serratia marcescens clinical strain 2", "result": ">128"}, {"measurement": "Minimum inhibitory concentration", "setting": "[4]; Serratia marcescens clinical strain 3", "result": ">128"}, {"measurement": "Minimum inhibitory concentration", "setting": "[4]; Serratia marcescens clinical strain 4", "result": ">128"}, {"measurement": "Minimum inhibitory concentration", "setting": "[4]; Serratia marcescens clinical strain 5", "result": ">128"}, {"measurement": "Minimum inhibitory concentration", "setting": "[5]; Proteus mirabilis clinical strain 1", "result": ">128"}, {"measurement": "Minimum inhibitory concentration", "setting": "[5]; Proteus mirabilis clinical strain 2", "result": 128}, {"measurement": "Minimum inhibitory concentration", "setting": "[5]; Proteus mirabilis clinical strain 3", "result": 128}, {"measurement": "Minimum inhibitory concentration", "setting": "[5]; Proteus mirabilis clinical strain 4", "result": ">128"}, {"measurement": "Minimum inhibitory concentration", "setting": "[5]; Proteus mirabilis clinical strain 5", "result": ">128"}, {"measurement": "Minimum inhibitory concentration", "setting": "[6]; Enterobacter cloacae clinical strain 1", "result": 4}, {"measurement": "Minimum inhibitory concentration", "setting": "[6]; Enterobacter cloacae clinical strain 2", "result": 4}, {"measurement": "Minimum inhibitory concentration", "setting": "[6]; Enterobacter cloacae clinical strain 3", "result": 4}, {"measurement": "Minimum inhibitory concentration", "setting": "[6]; Enterobacter cloacae clinical strain 4", "result": 4}, {"measurement": "Minimum inhibitory concentration", "setting": "[6]; Enterobacter cloacae clinical strain 5", "result": 2}, {"measurement": "Minimum inhibitory concentration", "setting": "[7]; Staphylococcus aureus clinical strain 1", "result": 1}, {"measurement": "Minimum inhibitory concentration", "setting": "[7]; Staphylococcus aureus clinical strain 2", "result": 1}, {"measurement": "Minimum inhibitory concentration", "setting": "[7]; Staphylococcus aureus clinical strain 3", "result": 1}, {"measurement": "Minimum inhibitory concentration", "setting": "[7]; Staphylococcus aureus clinical strain 4", "result": 1}, {"measurement": "Minimum inhibitory concentration", "setting": "[7]; Staphylococcus aureus clinical strain 5", "result": 1}, {"measurement": "Minimum inhibitory concentration", "setting": "[8]; Streptococcus pneumoniae clinical strain 1", "result": 16}, {"measurement": "Minimum inhibitory concentration", "setting": "[8]; Streptococcus pneumoniae clinical strain 2", "result": 8}, {"measurement": "Minimum inhibitory concentration", "setting": "[8]; Streptococcus pneumoniae clinical strain 3", "result": 16}, {"measurement": "Minimum inhibitory concentration", "setting": "[8]; Streptococcus pneumoniae clinical strain 4", "result": 4}, {"measurement": "Minimum inhibitory concentration", "setting": "[8]; Streptococcus pneumoniae clinical strain 5", "result": 8}, {"measurement": "Minimum inhibitory concentration", "setting": "[9]; Candida albicans clinical yeast strain 1", "result": 8}, {"measurement": "Minimum inhibitory concentration", "setting": "[9]; Candida albicans clinical yeast strain 2", "result": 8}, {"measurement": "Minimum inhibitory concentration", "setting": "[9]; Candida albicans clinical yeast strain 3", "result": 8}, {"measurement": "Minimum inhibitory concentration", "setting": "[9]; Candida albicans clinical yeast strain 4", "result": 16}, {"measurement": "Minimum inhibitory concentration", "setting": "[9]; Candida albicans clinical yeast strain 5", "result": 16}, {"measurement": "Minimum inhibitory concentration", "setting": "[10]; C. glabrata clinical yeast strain 1", "result": 16}, {"measurement": "Minimum inhibitory concentration", "setting": "[10]; C. glabrata clinical yeast strain 2", "result": 16}, {"measurement": "Minimum inhibitory concentration", "setting": "[10]; C. glabrata clinical yeast strain 3", "result": 8}, {"measurement": "Minimum inhibitory concentration", "setting": "[10]; C. glabrata clinical yeast strain 4", "result": 64}, {"measurement": "Minimum inhibitory concentration", "setting": "[11]; C. parapsilosis clinical yeast strain 1", "result": 16}, {"measurement": "Minimum inhibitory concentration", "setting": "[11]; C. parapsilosis clinical yeast strain 2", "result": 8}, {"measurement": "Minimum inhibitory concentration", "setting": "[11]; C. parapsilosis clinical yeast strain 3", "result": 8}, {"measurement": "Minimum inhibitory concentration", "setting": "[11]; C. parapsilosis clinical yeast strain 4", "result": 8}, {"measurement": "Minimum inhibitory concentration", "setting": "[12]", "result": 4}]}]}
